Results reported in patent US20240228504A1, “SUBSTITUTED TRICYCLIC AMIDES, ANALOGUES THEREOF, AND METHODS USING SAME” (Arbutus Biopharma Corporation, priority 2020, published 2024).
pEC50: −log10 of the molar value.

Test system: HBV rcDNA in HepDE19 cells
Test: HepDE19 assay with bDNA quantitation of HBV rcDNA
Type: cell-based, hepatitis B virus
Details: HepDE19 assay, inhibition of rcDNA formation, bDNA quantitation; read-out: DE-19bDNA EC50

Compound | pEC50
CN(C(=O)c1cc2c(F)cccc2[nH]1)C1CNCc2[nH]c(=O)c3cc(F)c(F)cc3c21 (single isomer, unassigned) [Compound 105, N-(8,9-Difluoro-6-oxo-1,2,3,4,5,6-hexahydrobenzo[c][1,7]naphthyridin-1-yl)-4-fluoro-N-methyl-1H-indole-2-carboxamide] | 8.00
CN(C(=O)C1Cc2c(F)cc(F)cc2N1)C1COCc2[nH]c(=O)c3cc(F)c(F)cc3c21 (stereo not shown) [Compound 15, N-(8,9-Difluoro-6-oxo-1,4,5,6-tetrahydro-2H-pyrano[3,4-c]isoquinolin-1-yl)-4,6-difluoro-N-methylindoline-2-carboxamide] | 6.02
CN(C(=O)c1cc2ccccc2[nH]1)C1CNCc2[nH]c(=O)c3cc(F)ccc3c21 (single isomer, unassigned) [Compound 77, N-(8-Fluoro-6-oxo-1,2,3,4,5,6-hexahydrobenzo[c][1,7]naphthyridin-1-yl)-N-methyl-1H-indole-2-carboxamide] | 6.82
CN(C(=O)c1cc2c(C#N)cc(F)cc2[nH]1)C1COCc2[nH]c(=O)c3cc(F)ccc3c21 (single isomer, unassigned) [Compound 382, 4-Cyano-6-fluoro-N-(8-fluoro-6-oxo-1,4,5,6-tetrahydro-2H-pyrano[3,4-c]isoquinolin-1-yl)-N-methyl-1H-indole-2-carboxamide] | 6.01
CCc1cc(F)cc2[nH]c(C(=O)N(C)C3CNCc4[nH]c(=O)c5cc(F)c(F)cc5c43)cc12 (single isomer, unassigned) [Compound 401, N-(8,9-Difluoro-6-oxo-1,2,3,4,5,6-hexahydrobenzo[c][1,7]naphthyridin-1-yl)-4-ethyl-6-fluoro-N-methyl-1H-indole-2-carboxamide] | 5.60
CN(C(=O)c1cc2cc(F)ccc2[nH]1)C1CNCc2[nH]c(=O)c3cc(F)c(F)cc3c21 (single isomer, unassigned) [Compound 101, N-(8,9-Difluoro-6-oxo-1,2,3,4,5,6-hexahydrobenzo[c][1,7]naphthyridin-1-yl)-5-fluoro-N-methyl-1H-indole-2-carboxamide] | 8.00
CC(=O)N1Cc2[nH]c(=O)c3cc(F)ccc3c2C(N(C)C(=O)c2cc3ccccc3[nH]2)C1 (single isomer, unassigned) [Compound 68, N-(3-Acetyl-8-fluoro-6-oxo-1,2,3,4,5,6-hexahydrobenzo[c][1,7]naphthyridin-1-yl)-N-methyl-1H-indole-2-carboxamide] | 5.26
CNc1nc2c(c3cc(F)c(F)cc13)C(N(C)C(=O)c1cc3cc(F)c(F)cc3[nH]1)COC2 (single isomer, unassigned) [Compound 333, N-(8,9-Difluoro-6-(methylamino)-1,4-dihydro-2H-pyrano[3,4-c]isoquinolin-1-yl)-5,6-difluoro-N-methyl-1H-indole-2-carboxamide] | 6.28
CN(C(=O)c1cc2c(F)cccc2[nH]1)C1COCc2[nH]c(=O)c3cc(F)ccc3c21 (single isomer, unassigned) [Compound 19, 4-Fluoro-N-(8-fluoro-6-oxo-1,4,5,6-tetrahydro-2H-pyrano[3,4-c]isoquinolin-1-yl)-N-methyl-1H-indole-2-carboxamide] | 5.82
CN(C(=O)c1cc2cc(C#N)ccc2[nH]1)C1COCc2[nH]c(=O)c3cc(F)ccc3c21 (single isomer, unassigned) [Compound 398, 5-Cyano-N-(8-fluoro-6-oxo-1,4,5,6-tetrahydro-2H-pyrano[3,4-c]isoquinolin-1-yl)-N-methyl-1H-indole-2-carboxamide] | 6.57
CN(C(=O)c1cc2ccccc2[nH]1)C1CNCc2[nH]c(=O)c3cc(F)ccc3c21 (single isomer, unassigned) [Compound 78, N-(8-Fluoro-6-oxo-1,2,3,4,5,6-hexahydrobenzo[c][1,7]naphthyridin-1-yl)-N-methyl-1H-indole-2-carboxamide] | 5.09
CN(C(=O)c1cc2c(C#N)cc(F)cc2[nH]1)C1CNCc2[nH]c(=O)c3cc(F)c(F)cc3c21 (single isomer, unassigned) [Compound 399, 4-Cyano-N-(8,9-difluoro-6-oxo-1,2,3,4,5,6-hexahydrobenzo[c][1,7]naphthyridin-1-yl)-6-fluoro-N-methyl-1H-indole-2-carboxamide] | 5.42
CN(C(=O)c1cc2ccccn2c1)C1COCc2[nH]c(=O)c3cc(F)c(F)cc3c21 (single isomer, unassigned) [Compound 12, N-(8,9-Difluoro-6-oxo-1,4,5,6-tetrahydro-2H-pyrano[3,4-c]isoquinolin-1-yl)-N-methylindolizine-2-carboxamide] | 8.00
Cc1cc(F)cc2[nH]c(C(=O)N(C)C3CNCc4[nH]c(=O)c5cc(F)c(F)cc5c43)cc12 (single isomer, unassigned) [Compound 459, N-(8,9-difluoro-6-oxo-1,2,3,4,5,6-hexahydrobenzo[c][1,7]naphthyridin-1-yl)-6-fluoro-N,4-dimethyl-1H-indole-2-carboxamide] | 8.00
CN(C(=O)c1ccc2cn[nH]c2c1)C1CNCc2[nH]c(=O)c3cc(F)c(F)cc3c21 (single isomer, unassigned) [Compound 495, N-(8,9-difluoro-6-oxo-1,2,3,4,5,6-hexahydrobenzo[c][1,7]naphthyridin-1-yl)-N-methyl-1H-indazole-6-carboxamide] | < 4.60
CN(C(=O)c1cc2c(C(F)F)cccc2[nH]1)C1COCc2[nH]c(=O)c3cc(F)ccc3c21 (single isomer, unassigned) [Compound 182, 4-(Difluoromethyl)-N-(8-fluoro-6-oxo-1,4,5,6-tetrahydro-2H-pyrano[3,4-c]isoquinolin-1-yl)-N-methyl-1H-indole-2-carboxamide] | 6.12
CN(C(=O)c1cc2cc(F)c(F)cc2[nH]1)C1COCc2[nH]c(=O)c3cc(F)ccc3c21 (single isomer, unassigned) [Compound 49, 5,6-Difluoro-N-(8-fluoro-6-oxo-1,4,5,6-tetrahydro-2H-pyrano[3,4-c]isoquinolin-1-yl)-N-methyl-1H-indole-2-carboxamide] | 5.68

Same assay, conditions: Hepatitis B virus, HepDE19, HepDE19 assay, inhibition of rcDNA formation, bDNA quantitation; read-out: DE-19bDNA EC50

Compound | pEC50
CN(C(=O)c1cc2cc(C(F)(F)F)cnc2[nH]1)[C@@H]1COCc2[nH]c(=O)c3cc(F)c(F)cc3c21 [Compound 214, (S)-N-(8,9-difluoro-6-oxo-1,4,5,6-tetrahydro-2H-pyrano[3,4-c]isoquinolin-1-yl)-N-methyl-5-(trifluoromethyl)-1H-pyrrolo[2,3-b]pyridine-2-carboxamide] | 6.00
CN(C(=O)c1cc2cc(C(F)F)ccn2c1)C1CNCc2[nH]c(=O)c3cc(F)c(F)cc3c21 (single isomer, unassigned) [Compound 386, N-(8,9-Difluoro-6-oxo-1,2,3,4,5,6-hexahydrobenzo[c][1,7]naphthyridin-1-yl)-7-(difluoromethyl)-N-methylindolizine-2-carboxamide] | 5.72
CN(C(=O)c1ccc(-c2cc(F)cc(F)c2)c(F)c1)[C@@H]1COCc2[nH]c(=O)c3cc(F)c(F)cc3c21 [Compound 287, (S)-N-(8,9-Difluoro-6-oxo-1,4,5,6-tetrahydro-2H-pyrano[3,4-c]isoquinolin-1-yl)-2,3′,5′-trifluoro-N-methyl-[1,1′-biphenyl]-4-carboxamide] | 4.90
O=C(N[C@@H]1COCc2[nH]c(=O)c3cc(F)c(F)cc3c21)c1cc2cc(F)c(F)cc2[nH]1 [Compound 156, (S)-N-(8,9-Difluoro-6-oxo-1,4,5,6-tetrahydro-2H-pyrano[3,4-c]isoquinolin-1-yl)-5,6-difluoro-1H-indole-2-carboxamide] | 6.31
CN(C(=O)C1Cc2cc(F)c(F)cc2C1)[C@@H]1COCc2[nH]c(=O)c3cc(F)c(F)cc3c21 [Compound 233, (S)-N-(8,9-Difluoro-6-oxo-1,4,5,6-tetrahydro-2H-pyrano[3,4-c]isoquinolin-1-yl)-5,6-difluoro-N-methyl-2,3-dihydro-1H-indene-2-carboxamide] | 7.40
CN(C(=O)c1cc2c(OC(F)(F)F)cccc2[nH]1)[C@@H]1COCc2[nH]c(=O)c3cc(F)c(F)cc3c21 [Compound 363, (S)-N-(8,9-Difluoro-6-oxo-1,4,5,6-tetrahydro-2H-pyrano[3,4-c]isoquinolin-1-yl)-N-methyl-4-(trifluoromethoxy)-1H-indole-2-carboxamide] | 7.70
COc1nc2c(c3cc(F)c(F)cc13)[C@H](N(C)C(=O)c1cc3cc(F)c(F)cc3[nH]1)COC2 [Compound 241, (S)-N-(8,9-Difluoro-6-methoxy-1,4-dihydro-2H-pyrano[3,4-c]isoquinolin-1-yl)-5,6-difluoro-N-methyl-1H-indole-2-carboxamide] | 7.52
CN(C(=O)c1cccc(-c2ccc(F)cc2)c1)[C@@H]1COCc2[nH]c(=O)c3cc(F)c(F)cc3c21 [Compound 289, (S)-N-(8,9-Difluoro-6-oxo-1,4,5,6-tetrahydro-2H-pyrano[3,4-c]isoquinolin-1-yl)-4′-fluoro-N-methyl-[1,1′-biphenyl]-3-carboxamide] | 5.19
CN(C(=O)c1cc2cnccc2[nH]1)[C@@H]1COCc2[nH]c(=O)c3cc(F)c(F)cc3c21 [Compound 308, (S)-N-(8,9-Difluoro-6-oxo-1,4,5,6-tetrahydro-2H-pyrano[3,4-c]isoquinolin-1-yl)-N-methyl-1H-pyrrolo[3,2-c]pyridine-2-carboxamide] | 6.21
CN(C(=O)c1cc2c(Cl)cccc2[nH]1)[C@@H]1COCc2[nH]c(=O)c3cc(F)c(F)cc3c21 [Compound 347, (S)-4-Chloro-N-(8,9-difluoro-6-oxo-1,4,5,6-tetrahydro-2H-pyrano[3,4-c]isoquinolin-1-yl)-N-methyl-1H-indole-2-carboxamide] | 8.00
CN(C(=O)c1ccc2nncn2c1)[C@@H]1COCc2[nH]c(=O)c3cc(F)c(F)cc3c21 [Compound 70, (S)-N-(8,9-Difluoro-6-oxo-1,4,5,6-tetrahydro-2H-pyrano[3,4-c]isoquinolin-1-yl)-N-methyl-[1,2,4]triazolo[4,3-a]pyridine-6-carboxamide] | 4.66
